# Laboratory results as given in PubChem BioAssay (NCI).
#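 In this assay, cells in 96-well plates receive the compound at five concentrations for 48 hours. Endpoints are linearly interpolated between the surrounding concentrations. Abbreviation: GI50, concentration required for 50% inhibition of growth. The concentration for full growth arrest is given as TGI.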
# Legend:
# Assay in all cases: growth of human tumour cells (NCI), 48 h
# [1] = system: T-47D breast
# [2] = system: HOP-92 NSCLC
# [3] = system: MDA-MB-468 breast
# [4] = system: BT-549 breast
# [5] = system: SNB-75 CNS
# [6] = system: COLO 205 colon
# [7] = system: HCT-15 colon
# [8] = system: 786-0 renal
# [9] = system: HCT-116 colon
# [10] = system: HCC-2998 colon
# [11] = system: HS 578T breast
# [12] = system: OVCAR-5 ovarian
# [13] = system: M14 melanoma
# [14] = system: MDA-MB-231 breast
# [15] = system: UO-31 renal
# [16] = system: SF-539 CNS
# [17] = system: K-562 leukemia
# [18] = system: CAKI-1 renal
# [19] = system: SF-268 CNS
# [20] = system: NCI/ADR-RES ovarian
# [21] = system: RPMI-8226 leukemia
# [22] = system: A498 renal
# [23] = system: SN12C renal
# [24] = system: SK-MEL-2 melanoma
# [25] = system: NCI-H460 lung
# [26] = system: SK-MEL-28 melanoma
# [27] = system: OVCAR-3 ovarian
# [28] = system: PC-3 prostate
# [29] = system: OVCAR-8 ovarian
# [30] = system: SK-OV-3 ovarian
# [31] = system: NCI-H522 lung
# [32] = system: MALME-3M melanoma
# [33] = system: OVCAR-4 ovarian
# [34] = system: TK-10 renal
# [35] = system: RXF 393 renal
# [36] = system: HL-60(TB) leukemia
# [37] = system: HOP-62 NSCLC
# [38] = system: KM12 colon
# [39] = system: UACC-62 melanoma
# [40] = system: IGROV1 ovarian
# [41] = system: SR leukemia
# [42] = system: NCI-H23 lung
# [43] = system: NCI-H226 lung
# [44] = system: MOLT-4 leukemia
# [45] = system: EKVX NSCLC
# [46] = system: LOX IMVI melanoma
# [47] = system: SF-295 CNS
# [48] = system: SK-MEL-5 melanoma
# [49] = system: CCRF-CEM leukemia
# [50] = system: HT29 colon
# [51] = system: SNB-19 CNS
# [52] = system: A549 NSCLC
# [53] = system: SW-620 colon
# [54] = system: MCF7 breast
# [55] = system: DU-145 prostate
# [56] = system: UACC-257 melanoma
# [57] = system: U251 CNS
# [58] = system: MDA-MB-435
# [59] = system: ACHN renal
compound,measurement,setting,value
Cc1ccc2c(c1)/C(=C/C(=O)c1cc3ccccc3oc1=O)C(=O)N2,GI50,[1],13 µM
same,TGI,[1],34.5 µM
same,GI50,[2],14.5 µM
same,TGI,[2],28.4 µM
same,GI50,[3],10.5 µM
same,TGI,[3],23.9 µM
same,GI50,[4],17.6 µM
same,TGI,[4],33.7 µM
same,GI50,[5],82.1 µM
same,TGI,[5],> 100 µM
same,GI50,[6],17.2 µM
same,TGI,[6],32.4 µM
same,GI50,[7],16.7 µM
same,TGI,[7],32.8 µM
same,GI50,[8],18.5 µM
same,TGI,[8],32.4 µM
same,GI50,[9],4.45 µM
same,TGI,[9],16.8 µM
same,GI50,[10],17.7 µM
same,TGI,[10],32.8 µM
same,GI50,[11],19.4 µM
same,TGI,[11],84.6 µM
same,GI50,[12],16.7 µM
same,TGI,[12],30.3 µM
same,GI50,[13],15.9 µM
same,TGI,[13],29.8 µM
same,GI50,[14],15 µM
same,TGI,[14],28.2 µM
same,GI50,[15],11.3 µM
same,TGI,[15],23.4 µM
same,GI50,[16],16.2 µM
same,TGI,[16],29.7 µM
same,GI50,[17],3.91 µM
same,TGI,[17],48.7 µM
same,GI50,[18],12.2 µM
same,TGI,[18],25.3 µM
same,GI50,[19],68.3 µM
same,TGI,[19],> 100 µM
same,GI50,[20],17.3 µM
same,TGI,[20],34.4 µM
same,GI50,[21],22.1 µM
same,TGI,[21],63.9 µM
same,GI50,[22],> 100 µM
same,TGI,[22],> 100 µM
same,GI50,[23],16.9 µM
same,TGI,[23],31.9 µM
same,GI50,[24],21.1 µM
same,TGI,[24],54.7 µM
same,GI50,[25],> 100 µM
same,TGI,[25],> 100 µM
same,GI50,[26],17 µM
same,TGI,[26],30.6 µM
same,GI50,[27],14.1 µM
same,TGI,[27],27.3 µM
same,GI50,[28],16.1 µM
same,TGI,[28],36 µM
same,GI50,[29],17.9 µM
same,TGI,[29],34 µM
same,GI50,[30],> 100 µM
same,TGI,[30],> 100 µM
same,GI50,[31],3.26 µM
same,TGI,[31],11.5 µM
same,GI50,[32],10.6 µM
same,TGI,[32],22.5 µM
same,GI50,[33],17.4 µM
same,TGI,[33],33.3 µM
same,GI50,[34],20 µM
same,TGI,[34],34.7 µM
same,GI50,[35],15.8 µM
same,TGI,[35],29.3 µM
same,GI50,[36],4.32 µM
same,TGI,[36],23.1 µM
same,GI50,[37],> 100 µM
same,TGI,[37],> 100 µM
same,GI50,[38],> 100 µM
same,TGI,[38],> 100 µM
same,GI50,[39],15.5 µM
same,TGI,[39],33 µM
same,GI50,[40],16.2 µM
same,TGI,[40],29.9 µM
same,GI50,[41],7.24 µM
same,TGI,[41],74.7 µM
same,GI50,[42],16.4 µM
same,TGI,[42],32.8 µM
same,GI50,[43],18.6 µM
same,TGI,[43],46.8 µM
same,GI50,[44],8.56 µM
same,TGI,[44],43.2 µM
same,GI50,[45],16.2 µM
same,TGI,[45],29.9 µM
same,GI50,[46],14.7 µM
same,TGI,[46],27.9 µM
same,GI50,[47],> 100 µM
same,TGI,[47],> 100 µM
same,GI50,[48],24.9 µM
same,TGI,[48],80.2 µM
same,GI50,[49],6.91 µM
same,TGI,[49],56.5 µM
same,GI50,[50],20.6 µM
same,TGI,[50],40.5 µM
same,GI50,[51],> 100 µM
same,TGI,[51],> 100 µM
same,GI50,[52],34.5 µM
same,TGI,[52],> 100 µM
same,GI50,[53],14.7 µM
same,TGI,[53],30.4 µM
same,GI50,[54],16.4 µM
same,TGI,[54],34 µM
same,GI50,[55],17.9 µM
same,TGI,[55],32.4 µM
same,GI50,[56],15.7 µM
same,TGI,[56],29.6 µM
same,GI50,[57],29.2 µM
same,TGI,[57],> 100 µM
same,GI50,[58],17.6 µM
same,TGI,[58],33 µM
same,GI50,[59],9.6 µM
same,TGI,[59],21.3 µM
